# Test results published in publication PMC3423353, “Natural Iminosugar (+)-Lentiginosine Inhibits ATPase and Chaperone Activity of Hsp90” (PLoS ONE, 2012).
# Legend:
# Hsp90 = target: T1, Hsp90 (Homo sapiens, UniProt P07900); test: SPR binding assay on immobilized Hsp90
# T1 construct: purchased Assay Designs (Ann Arbor, MI, USA); host or cells: E. coli
# Procedure: Radicicol was used as positive controls.
# SPR analyses were performed as describe elsewhere, [38]. Briefly, SPR analyses were performed using a Biacore 3000 optical biosensor equipped with research-grade CM5 sensor chips (GE Healthcare). Using this platform, two separate recombinant Hsp90 surfaces, a BSA surface and an unmodified reference surface were prepared for simultaneous analyses. […] Included in each analysis were multiple blank samples of running buffer alone. Binding experiments were performed at 25°C, using a flow rate of 50 µL min^−1, with 60 s monitoring of association and 200 s monitoring of dissociation. […] Sensorgram elaborations were performed using the Biaevaluation software provided by GE Healthcare.
# Hsp90 ATPase activity = target: T2, Hsp90 ATPase activity (Homo sapiens, UniProt P07900); test: ATP hydrolysis inhibition (ADP Hunter Plus assay); assay type: biochemical; settings: 40 nM Hsp90, 100 µM ATP; for inhibition of the ATPase activity of Hsp90: 60 min, 40°C, different concentrations
# T2 construct: purchased Assay Designs (Ann Arbor, MI, USA); host or cells: E. coli
# Procedure: To evaluate the effect of interacting compounds on Hsp90 biological activity, the ATPase activity of the enzyme was tested in the presence of the most affine compounds (1, 3 and 4); […]. (−)-Lentiginosine was used as negative control.
# The Discover RX ADP HunterTM Plus Assay kit was used following the manufacturer’s instructions. […]. ADP generation was measured using a Perkin Elmer LS 55 fluorimeter (540 nm excitation and 620 nm emission). Fluorescence intensity values measured for Hsp90 without any testing compound was assumed as 100% of enzyme activity. The background reaction rate was measured in a reaction lacking enzyme or substrate and subtracted from the experimental rates.
# Hsp90 chaperone activity = target: T3, Hsp90 chaperone activity (Homo sapiens, UniProt P07900); test: Citrate synthase thermal aggregation assay (chaperone activity); assay type: biochemical; settings: 0.075 µM CS, 0.075 µM Hsp90, 0.3 µM compound (4-fold molar excess), 43°C, light scattering
# T3 construct: purchased Assay Designs (Ann Arbor, MI, USA); host or cells: E. coli
# Procedure: The ability of compounds 1, 3 and 4 to inhibit the chaperone activity of Hsp90 was also evaluated monitoring the citrate synthase (CS) thermal induced aggregation in the presence of Hsp90 [24], with or without these compounds. […] The spontaneous aggregation of CS at 43°C (♦) and the aggregation of CS at 43°C in the presence of 0.075 µM Hsp90 (Δ) or of 0.075 µM Hsp90 and 0.3 µM compound 1 (▪), 0.3 µM compound 2 (•), 0.3 compound 3 (□), or 0.3 µM compound 4 (○) are shown. Chaperone activity was evaluated as reported elsewhere by monitoring the thermal-induced aggregation of Citrate synthase (CS) in absence or in presence of a stoichiometric amount of Hsp90, and with or without a 4-fold molar excess of each testing compound. Aggregation was initiated by unfolding CS (0.075 µM) incubating the protein in 40 mM HEPES–KOH, pH 7.5 at 43°C. Aggregation was monitored by measuring light scattering at right angles with Perkin Elmer LS 55 fluorimeter in stirred and thermostated quartz cells. Both the emission and excitation wavelengths were set at 500 nm, and the band pass was 2 nm. Kinetics traces reported here are the averages of two measurements.
# [1] = target: T4, human full length recombinant Hsp90 (Homo sapiens, UniProt P07900); test: Competitive fluorescence polarization assay with fluorescent geldanamycin probe (fGDA); assay type: binding; settings: concentration up to 100 µM, added before or after fGDA
# T4 construct: purchased Assay Designs (Ann Arbor, MI, USA); host or cells: E. coli
# Procedure: In an effort to identify the Hsp90 region involved in (+)-lentiginosine binding, we first performed some fluorescence polarization assays using a fluorescent geldanamycin probe (fGDA) to evaluate if this compound could interact with the ATP-binding pocket of Hsp90 [25].
# Binding of compound 1 to human full length recombinant Hsp90 was determined by a competitive binding fluorescence polarization assay using a fluorescent geldanamycin probe, as reported elsewhere.
# [2] = immobilized Hsp90, 25°C, single-site bimolecular model
SMILES,Kd (Hsp90; [2]),koff (Hsp90; [2]),ATPase inhibitory power compared with 17-AAG (Hsp90 ATPase activity),inhibition of the ATPase activity of Hsp90 (Hsp90 ATPase activity),inhibition of Hsp90 chaperone activity (CS aggregation kinetics) (Hsp90 chaperone activity),displacement of fGDA from Hsp90 [1],interaction with immobilized Hsp90 (Hsp90; 0.020 to 1 µM),KD (Hsp90; [2])
"O[C@@H]1[C@@H](O)CN2CCCC[C@@H]12 [Compound 1, (+)-lentiginosine]",0.0247 ± 0.0006 µM,1.86±0.31 10^-3 1/s,inhibitory power higher than that measured for 17-AAG,inhibit the ATPase activity of Hsp90 in a concentration dependent manner,inhibition of Hsp90 chaperone activity,unable to displace fGDA,–,–
"O[C@H]1[C@H](O)CN2CCCC[C@H]12 [Compound 2, (−)-lentiginosine]",–,–,–,–,not able to inhibit the chaperone activity of Hsp90,–,did not bind,No binding
N[C@H]1CCN2C[C@H](O)[C@@H](O)[C@@H]2C1 [Compound 7],1.009 ± 0.0058 µM,25.6±2.1 10^-3 1/s,–,–,–,–,–,–

# More lines, main results first:
Kd (Hsp90; [2]),koff (Hsp90; [2]),SMILES,ATPase inhibitory power compared with 17-AAG (Hsp90 ATPase activity),inhibition of the ATPase activity of Hsp90 (Hsp90 ATPase activity),inhibition of Hsp90 chaperone activity (CS aggregation kinetics) (Hsp90 chaperone activity),displacement of fGDA from Hsp90 [1],interaction with immobilized Hsp90 (Hsp90; 0.020 to 1 µM),KD (Hsp90; [2])
0.108 ± 0.0011 µM,2.18±0.23 10^-3 1/s,N=C(N)NCCC[C@H](N)C(=O)N[C@H]1CCN2C[C@H](O)[C@@H](O)[C@@H]2C1 [Compound 3],–,inhibit the ATPase activity of Hsp90 in a concentration dependent manner,inhibitory effects were less evident,–,–,–
0.0459 ± 0.0005 µM,2.05±0.42 10^-3 1/s,CCCCCCc1cn([C@H]2CCN3C[C@H](O)[C@@H](O)[C@@H]3C2)nn1 [Compound 4],–,inhibit the ATPase activity of Hsp90 in a concentration dependent manner,inhibitory effects were less evident,–,–,–
0.116 ± 0.0016 µM,2.55±0.35 10^-3 1/s,OCCc1cn([C@H]2CCN3C[C@H](O)[C@@H](O)[C@@H]3C2)nn1 [Compound 5],–,–,–,–,–,–
0.3068 ± 0.0029 µM,4.12±0.81 10^-3 1/s,N[C@@H](Cc1c[nH]c2ccccc12)C(=O)NCc1cn([C@H]2CCN3C[C@H](O)[C@@H](O)[C@@H]3C2)nn1 [Compound 6],–,–,–,–,–,–
